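How tested: cells in 96-well plates exposed to compound for 48 hours at five concentrations. At the GI50, growth is halved. TGI: total growth inhibition.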
Assays:
Assay in all cases: NCI-60 cell line screen, 48 h
A549 NSCLC = test system: A549 NSCLC
ACHN renal = test system: ACHN renal
CCRF-CEM leukemia = test system: CCRF-CEM leukemia
HCT-116 colon = test system: HCT-116 colon
HT29 colon = test system: HT29 colon
MOLT-4 leukemia = test system: MOLT-4 leukemia
NCI-H23 lung = test system: NCI-H23 lung
SNB-19 CNS = test system: SNB-19 CNS
UACC-257 melanoma = test system: UACC-257 melanoma
UACC-62 melanoma = test system: UACC-62 melanoma

## CCOC(=O)/C(C1=CC(=O)C(=O)c2ccccc21)=C(/C)NCc1ccccc1
A549 NSCLC
  GI50: 2.4 µM
  TGI: 6.42 µM
ACHN renal
  GI50: 2.28 µM
  TGI: 4.75 µM
CCRF-CEM leukemia
  GI50: 0.0144 µM
  TGI: 0.0649 µM
HCT-116 colon
  GI50: 1.52 µM
  TGI: 2.85 µM
HT29 colon
  GI50: 4.36 µM
  TGI: > 100 µM
MOLT-4 leukemia
  GI50: 0.182 µM
  TGI: 0.434 µM
NCI-H23 lung
  GI50: 1.85 µM
  TGI: 3.71 µM
SNB-19 CNS
  GI50: 3.24 µM
  TGI: > 100 µM
UACC-257 melanoma
  GI50: 2.56 µM
  TGI: 10.9 µM
UACC-62 melanoma
  GI50: 2.02 µM
  TGI: 3.91 µM

## OCCCNCc1ccccn1
A549 NSCLC
  TGI: > 100 µM
ACHN renal
  TGI: > 100 µM
CCRF-CEM leukemia
  TGI: > 100 µM
HCT-116 colon
  TGI: > 100 µM
HT29 colon
  TGI: > 100 µM
MOLT-4 leukemia
  TGI: > 100 µM
NCI-H23 lung
  TGI: > 100 µM
SNB-19 CNS
  TGI: > 100 µM
UACC-257 melanoma
  TGI: > 100 µM
UACC-62 melanoma
  TGI: > 100 µM

## CC(SC1=CC(=O)c2c(O)ccc(O)c2C1=O)C(=O)O (stereo not given)
A549 NSCLC
  TGI: > 100 µM
ACHN renal
  TGI: > 64.1 µM
CCRF-CEM leukemia
  TGI: 14.8 µM
HCT-116 colon
  TGI: > 72.3 µM
HT29 colon
  TGI: > 100 µM
MOLT-4 leukemia
  TGI: 60.7 µM
NCI-H23 lung
  TGI: > 90.4 µM
SNB-19 CNS
  TGI: > 100 µM
UACC-257 melanoma
  TGI: > 66 µM
UACC-62 melanoma
  TGI: 36.6 µM

## CCN(CC)CC(C)Nc1ccc(C)c2sc3ccccc3c(=O)c12 (stereo not given)
A549 NSCLC
  GI50: 3.02 µM
  TGI: 16.8 µM
ACHN renal
  GI50: 3.88 µM
  TGI: 15.1 µM
CCRF-CEM leukemia
  GI50: 4.33 µM
  TGI: 18 µM
HCT-116 colon
  GI50: 3.07 µM
  TGI: 12.3 µM
HT29 colon
  GI50: 3.29 µM
  TGI: 10.8 µM
MOLT-4 leukemia
  GI50: 1.68 µM
  TGI: 5.93 µM
NCI-H23 lung
  GI50: 5.94 µM
  TGI: 19.8 µM
SNB-19 CNS
  GI50: 6.44 µM
  TGI: 19.5 µM
UACC-257 melanoma
  GI50: 2.07 µM
  TGI: 4.82 µM
UACC-62 melanoma
  GI50: 1.82 µM
  TGI: 3.98 µM

## COc1ccc(N=Cc2ccc(N(CCC#N)CCC#N)cc2)cc1
A549 NSCLC
  TGI: > 100 µM
ACHN renal
  TGI: > 100 µM
CCRF-CEM leukemia
  TGI: > 100 µM
HCT-116 colon
  TGI: > 100 µM
HT29 colon
  TGI: > 100 µM
MOLT-4 leukemia
  TGI: > 100 µM
NCI-H23 lung
  TGI: > 100 µM
SNB-19 CNS
  TGI: > 100 µM
UACC-257 melanoma
  TGI: > 100 µM
UACC-62 melanoma
  TGI: > 100 µM

## Nc1ncnc2c1ncn2C1OC(C(=O)O)C(O)C1O (stereo not given)
A549 NSCLC
  TGI: > 100 µM
ACHN renal
  TGI: > 100 µM
CCRF-CEM leukemia
  TGI: > 100 µM
HCT-116 colon
  TGI: > 100 µM
HT29 colon
  TGI: > 100 µM
MOLT-4 leukemia
  TGI: > 100 µM
NCI-H23 lung
  TGI: > 100 µM
SNB-19 CNS
  TGI: > 100 µM
UACC-257 melanoma
  TGI: > 100 µM
UACC-62 melanoma
  TGI: > 100 µM

## Nc1ccc2c(c1)[O][Sn]([c]1ccccc1)([c]1ccccc1)[O]C2=O
A549 NSCLC
  GI50: 4.61 µM
  TGI: 15.9 µM
ACHN renal
  GI50: 11.9 µM
  TGI: 25.4 µM
CCRF-CEM leukemia
  GI50: 1.92 µM
  TGI: 7.76 µM
HCT-116 colon
  GI50: 7.97 µM
  TGI: 15.7 µM
HT29 colon
  GI50: 12.1 µM
  TGI: 26.5 µM
MOLT-4 leukemia
  GI50: 5.01 µM
  TGI: 29.7 µM
NCI-H23 lung
  GI50: 2.76 µM
  TGI: 8.58 µM
SNB-19 CNS
  GI50: 17.3 µM
  TGI: 31.3 µM
UACC-257 melanoma
  GI50: 8.14 µM
  TGI: 20 µM
UACC-62 melanoma
  GI50: 5.94 µM
  TGI: 16.3 µM

## O=C1c2cccc3cc([N+](=O)[O-])cc(c23)C(=O)N1CCCN1CCN(CCCN2C(=O)c3cccc4cc([N+](=O)[O-])cc(c34)C2=O)CC1
A549 NSCLC
  TGI: > 100 µM
ACHN renal
  TGI: 4.28 µM
CCRF-CEM leukemia
  TGI: > 100 µM
HCT-116 colon
  TGI: 1.34 µM
HT29 colon
  TGI: > 100 µM
MOLT-4 leukemia
  TGI: > 100 µM
NCI-H23 lung
  TGI: 7.64 µM
SNB-19 CNS
  TGI: > 100 µM
UACC-257 melanoma
  TGI: 8.97 µM
UACC-62 melanoma
  TGI: 1.65 µM

## [Cl][Sn]([c]1ccccc1)[c]1ccccc1
A549 NSCLC
  GI50: 17.5 µM
  TGI: 36.2 µM
ACHN renal
  GI50: 11.9 µM
  TGI: 24.2 µM
CCRF-CEM leukemia
  GI50: 1.85 µM
  TGI: 5.85 µM
HCT-116 colon
  GI50: 6.91 µM
  TGI: 22.9 µM
HT29 colon
  GI50: 9.99 µM
  TGI: 24.2 µM
MOLT-4 leukemia
  GI50: 2.91 µM
  TGI: 28.9 µM
NCI-H23 lung
  GI50: 5.19 µM
  TGI: 18.1 µM
SNB-19 CNS
  GI50: 11.6 µM
  TGI: 23.8 µM
UACC-257 melanoma
  GI50: 8.25 µM
  TGI: 23.1 µM
UACC-62 melanoma
  GI50: 3.22 µM
  TGI: 9.57 µM

## C=C1C(O)C2C(=C(CC(C)C)C13CC3)C(=O)C(C)(C)C2OC (stereo not given)
A549 NSCLC
  GI50: > 100 µM
  TGI: > 100 µM
ACHN renal
  GI50: > 100 µM
  TGI: > 100 µM
CCRF-CEM leukemia
  GI50: 86.6 µM
  TGI: > 100 µM
HCT-116 colon
  GI50: 81.5 µM
  TGI: > 100 µM
HT29 colon
  GI50: > 100 µM
  TGI: > 100 µM
MOLT-4 leukemia
  GI50: 24.2 µM
  TGI: 66.8 µM
NCI-H23 lung
  GI50: > 100 µM
  TGI: > 100 µM
SNB-19 CNS
  GI50: > 100 µM
  TGI: > 100 µM
UACC-257 melanoma
  GI50: > 100 µM
  TGI: > 100 µM
UACC-62 melanoma
  GI50: > 100 µM
  TGI: > 100 µM

## CCc1ccc(C2=C(O)C(=O)C(c3ccc(CC)cc3)=C(O)C2=O)cc1
A549 NSCLC
  GI50: 2.74 µM
  TGI: 10.4 µM
ACHN renal
  GI50: 2.01 µM
  TGI: 6.28 µM
CCRF-CEM leukemia
  GI50: 1.37 µM
  TGI: 5.72 µM
HCT-116 colon
  GI50: 2.24 µM
  TGI: 6 µM
HT29 colon
  GI50: 2.34 µM
  TGI: 7.79 µM
MOLT-4 leukemia
  GI50: 1.81 µM
  TGI: 4.15 µM
NCI-H23 lung
  GI50: 1.96 µM
  TGI: 5.23 µM
SNB-19 CNS
  GI50: 2.17 µM
  TGI: 8.03 µM
UACC-257 melanoma
  GI50: 2.95 µM
  TGI: 11.1 µM
UACC-62 melanoma
  GI50: 1.64 µM
  TGI: 3.63 µM

## O=C1C=C(c2cc(Br)c(O)c(Br)c2)/C(=C/c2cc(Br)c(O)c(Br)c2)O1
A549 NSCLC
  GI50: 11.2 µM
  TGI: 49.3 µM
ACHN renal
  GI50: 29.4 µM
  TGI: > 75 µM
CCRF-CEM leukemia
  GI50: 7.38 µM
  TGI: 73.8 µM
HCT-116 colon
  GI50: 14.8 µM
  TGI: 43.8 µM
HT29 colon
  GI50: 39.2 µM
  TGI: > 75 µM
MOLT-4 leukemia
  GI50: 18.4 µM
  TGI: 51.9 µM
NCI-H23 lung
  GI50: 35.2 µM
  TGI: > 75 µM
SNB-19 CNS
  GI50: 14 µM
  TGI: > 75 µM
UACC-257 melanoma
  GI50: > 75 µM
  TGI: > 75 µM
UACC-62 melanoma
  GI50: 16.8 µM
  TGI: 38.2 µM

## CCCN(CCC)c1c([N+](=O)[O-])cc(S(N)(=O)=O)cc1[N+](=O)[O-]
A549 NSCLC
  TGI: 32.8 µM
ACHN renal
  TGI: 31.8 µM
CCRF-CEM leukemia
  TGI: 46.5 µM
HCT-116 colon
  TGI: 33.8 µM
HT29 colon
  TGI: 34 µM
MOLT-4 leukemia
  TGI: 45.4 µM
NCI-H23 lung
  TGI: 32.3 µM
SNB-19 CNS
  TGI: 41.3 µM
UACC-257 melanoma
  TGI: 37.2 µM
UACC-62 melanoma
  TGI: 32.8 µM

## CN(C)CCNc1cccc2sc3ccc(O)cc3c(=O)c12
A549 NSCLC
  GI50: 0.643 µM
  TGI: 5.54 µM
ACHN renal
  GI50: 1.43 µM
  TGI: 3.78 µM
CCRF-CEM leukemia
  GI50: 0.777 µM
  TGI: 6.61 µM
HCT-116 colon
  GI50: 2.12 µM
  TGI: 9.68 µM
HT29 colon
  GI50: 1.63 µM
  TGI: 4.08 µM
MOLT-4 leukemia
  GI50: 0.483 µM
  TGI: 2.81 µM
NCI-H23 lung
  GI50: 4.03 µM
  TGI: 17 µM
SNB-19 CNS
  GI50: 4.04 µM
  TGI: 17.4 µM
UACC-257 melanoma
  GI50: 1.7 µM
  TGI: 3.21 µM
UACC-62 melanoma
  GI50: 1.43 µM
  TGI: 2.87 µM

## CN(C)CCNC(=O)c1cccc(CO)c1[N+](=O)[O-]
A549 NSCLC
  TGI: > 100 µM
ACHN renal
  TGI: > 100 µM
CCRF-CEM leukemia
  TGI: > 100 µM
HCT-116 colon
  TGI: > 100 µM
HT29 colon
  TGI: > 100 µM
MOLT-4 leukemia
  TGI: > 100 µM
NCI-H23 lung
  TGI: > 100 µM
SNB-19 CNS
  TGI: > 100 µM
UACC-257 melanoma
  TGI: > 100 µM
UACC-62 melanoma
  TGI: > 100 µM

Source: PubChem BioAssay (NCI)
